# Reference: PMC10115881, “Disrupting the α-synuclein-ESCRT interaction with a peptide inhibitor mitigates neurodegeneration in preclinical models of Parkinson’s disease” (Nature Communications, 2023)
# How the values were obtained:
# [1] = system: A53T a-syn expressing HEK293 cells; experiment: Cell viability with CHMP2B or VPS4 shRNA knockdown, A53T a-syn cells; type: cell-based, human; set-up: Knockdown effect on cell viability: scale not given here
# Excerpt: Fig. 1 Proteomic screens and in vitro validation of hits. A Schematic of the experimental design including proteomic screens, identification and validation of hits, target deconvolution, and evaluation in cell and animal models (created using Servier Medical Art at https://smart.servier.com/). For the cytotoxicity screen, we employed our peptide library to identify peptides that rescue cytotoxicity induced by a-syn overexpression and proteostatic stress (due to MG132 administration). To screen our library for peptides that inhibit a-syn oligomers, we used FACS with a split YFP-a-syn system (cells co-expressing V1S and SV2). B Validation of cell viability effect of peptides in A53T and WT a-syn expressing cells under proteostatic stress as well as controls. MG132 was used at a concentration of 10 μM. Experiments were done in triplicate. Data represent means ± s.d. (unpaired two-tailed t-tests; A53T PDpep1, P = 0.0051; A53T PDpep1.1, P = 0.0002; A53T PDpep1.2, P = 0.0035; A53T PDpep1.3, P < 0.0001; WT a-syn PDpep1.3, P = 0.0008; n = 3). C WT a-syn oligomers as measured by luciferase activity. […] Experiments were done in triplicate. Data represent means ± s.d. (unpaired two-tailed t-tests; PDpep1, P = 0.0008; PDpep1.1, PDpep1.2, PDpep1.3, P < 0.0001; n = 3). D Co-immunoprecipitation experiment with Flag-CHMP2B and GFP-peptides (n = 3). […] E Fluorescence polarization (FP) binding assay of a FITC-labeled PDpep1.3 peptide against CHMP2B. Error bars represent ± s.d. of the fit (n = 5). F Knockdown of CHMP2B or VPS4 in A53T a-syn expressing cells under proteostatic stress. Cell viabilities were measured with cells stably expressing different shRNAs and transfected with Scramble or PDpep1.3 peptide. Experiments were done in triplicate. Data represent means ± s.d. (unpaired two-tailed t-tests; PDpep1.3, P = 0.0005; n = 3). **P < 0.01; ***P < 0.001; ****P < 0.0001. Source data are provided as a Source Data file.
# Cells were trypsinized from subconfluent cultures as described earlier, suspended in culture media, and then seeded into triplicate wells of a 96-well plate (100 µl/well) at a density of 1.5 × 10^4 cells per well with standard culture conditions of 5% CO2 at 37 °C. Cells were infected with lentivirus expressing peptide at a MOI of 5 for 72 h or transfected with plasmid for 72 h. Cell Titer-Glo reagent was added to each well (30 µL), according to the manufacturer’s protocol and […].
# Rab7 = Rab7 fluorescence in rat cortical neurons; type: cell-based; conditions: A53T a-syn
# Excerpt: Pregnant rats (E17) of the Sprague-Dawley strain were purchased from Envigo. Embryos were surgically removed from the mothers and cortices dissected in Hanks Balanced salt solution (Gibco). The meninges were removed, and cells were dissociated using a papain dissociation system (Worthington) before being resuspended in Neurobasal medium A supplemented with antibiotic-antimycotic solution (Gibco), L-glutamine substitute (GlutaMAX™; Gibco) and factor B27 (Gibco). […]
# After fixation, cells were permeabilized with 0.2% Triton-X-100 for 15 min, washed three times with PBS and then incubated with blocking solution (1% BSA, 22.52 mg/mL glycine, 0.1% Tween-20 in PBS or 0.4% saponin, 1% BSA, and 5% goat or donkey serum in PBS) for 1 h. […] Following another three washes with PBS, nuclei were counterstained with DAPI (ThermoFisher) and then coverslips were mounted on slides using Dako fluorescence mounting medium (Agilent) and sealed using clear nail varnish.
# Confocal images of primary cortical neurons, iPSC-derived dopaminergic neurons, and LAMP1 staining within the SN were processed using Imaris software (Oxford instruments). […] Mean pixel intensity per GFP^+ cell (for experiments using GFP-tagged peptides) or RFP^+ cell (for experiments using RFP-tagged peptides) was calculated for a-syn or LAMP1 signal using the software’s surfaces module. […]
sequence,measurement,setting,value
DEEIERQLKALG [PDpep1.3],Knockdown effect on cell viability,"[1]; CHMP2B shRNA, replicate 1",1.187
same,Knockdown effect on cell viability,"[1]; CHMP2B shRNA, replicate 2",1.181
same,Knockdown effect on cell viability,"[1]; CHMP2B shRNA, replicate 3",1.121
same,Knockdown effect on cell viability,"[1]; No shRNA, replicate 1",1.473
same,Knockdown effect on cell viability,"[1]; No shRNA, replicate 2",1.4504
same,Knockdown effect on cell viability,"[1]; No shRNA, replicate 3",1.525
same,Knockdown effect on cell viability,"[1]; VPS4A shRNA, replicate 1",1.3172
same,Knockdown effect on cell viability,"[1]; VPS4A shRNA, replicate 2",1.331
same,Knockdown effect on cell viability,"[1]; VPS4A shRNA, replicate 3",1.421
same,Knockdown effect on cell viability,"[1]; VPS4A/B shRNA, replicate 1",1.464
same,Knockdown effect on cell viability,"[1]; VPS4A/B shRNA, replicate 2",1.542
same,Knockdown effect on cell viability,"[1]; VPS4A/B shRNA, replicate 3",1.564
same,Knockdown effect on cell viability,"[1]; VPS4B shRNA, replicate 1",1.302
same,Knockdown effect on cell viability,"[1]; VPS4B shRNA, replicate 2",1.395
same,Knockdown effect on cell viability,"[1]; VPS4B shRNA, replicate 3",1.343
same,Cytoprotective effect under knockdown,[1]; shRNA CHMP2B or VPS4A and/or VPS4B,"prevented by CHMP2B knockdown, but not by knockdown of VPS4A and/or VPS4B"
same,Effect on Rab7,Rab7,normalized
